Patent US7022669B1, “Echinocandin derivatives, method for preparing same and application as antifungal agents” (Aventis Pharma S.A., priority 1999, dated 2006)

Molecular target: T1, Glucan Synthase of Candida albicans (Candida albicans, UniProt O13428)
T1 construct: endogenous in cells
Test: Inhibition of the Glucan Synthase of Candida albicans (14C-UDP glucose incorporation, membrane proteins)
Assay type: biochemical
Details: Candida albicans membranes, 25° C., 1 hour, radioactivity counted
Experimental: A—Inhibition of the Glucan Synthase of Candida albicans.
Candida albicans membranes were purified according to the process described by Tang et al Antimicrob. Agents Chemother 35, 99–103, 1991. 22.5 μg of membrane proteins are incubated in a mixture of 2 Mm of 14C-UDP glucose (specific activity=0.34 mCi./mmol, 50 μg of α-amylase, 1 Mm of dithiotreitol (DTT), 1 Mm EDTA, 100 Mm NaF, 7 μM of GTP-γ-S, 1M of sucrose and 50 Mm of Tris-HCL (pH 7.8) in a volume of 100 μl. The medium is incubated at 25° C. for 1 hour and the reaction is terminated by adding TCA at a final concentration of 5%. The reaction mixture is transferred onto a pre-humidified glass fibre filter. The filter is washed, dried and its radioactivity is counted. Mulundocandine is used as a positive control. Control of the vehicle is carried out with the same quantity of 1% DMSO. […] The enzyme is prepared according to the process of Beaulieu et al.(Antimicrob. Agents Chemother 38, 937–944, 1994. The protocol used is identical to the protocol described above for the enzyme of Candida albicans except that dithiotreitol is not used in the reaction mixture.

T1 sequence (O13428 1-1897): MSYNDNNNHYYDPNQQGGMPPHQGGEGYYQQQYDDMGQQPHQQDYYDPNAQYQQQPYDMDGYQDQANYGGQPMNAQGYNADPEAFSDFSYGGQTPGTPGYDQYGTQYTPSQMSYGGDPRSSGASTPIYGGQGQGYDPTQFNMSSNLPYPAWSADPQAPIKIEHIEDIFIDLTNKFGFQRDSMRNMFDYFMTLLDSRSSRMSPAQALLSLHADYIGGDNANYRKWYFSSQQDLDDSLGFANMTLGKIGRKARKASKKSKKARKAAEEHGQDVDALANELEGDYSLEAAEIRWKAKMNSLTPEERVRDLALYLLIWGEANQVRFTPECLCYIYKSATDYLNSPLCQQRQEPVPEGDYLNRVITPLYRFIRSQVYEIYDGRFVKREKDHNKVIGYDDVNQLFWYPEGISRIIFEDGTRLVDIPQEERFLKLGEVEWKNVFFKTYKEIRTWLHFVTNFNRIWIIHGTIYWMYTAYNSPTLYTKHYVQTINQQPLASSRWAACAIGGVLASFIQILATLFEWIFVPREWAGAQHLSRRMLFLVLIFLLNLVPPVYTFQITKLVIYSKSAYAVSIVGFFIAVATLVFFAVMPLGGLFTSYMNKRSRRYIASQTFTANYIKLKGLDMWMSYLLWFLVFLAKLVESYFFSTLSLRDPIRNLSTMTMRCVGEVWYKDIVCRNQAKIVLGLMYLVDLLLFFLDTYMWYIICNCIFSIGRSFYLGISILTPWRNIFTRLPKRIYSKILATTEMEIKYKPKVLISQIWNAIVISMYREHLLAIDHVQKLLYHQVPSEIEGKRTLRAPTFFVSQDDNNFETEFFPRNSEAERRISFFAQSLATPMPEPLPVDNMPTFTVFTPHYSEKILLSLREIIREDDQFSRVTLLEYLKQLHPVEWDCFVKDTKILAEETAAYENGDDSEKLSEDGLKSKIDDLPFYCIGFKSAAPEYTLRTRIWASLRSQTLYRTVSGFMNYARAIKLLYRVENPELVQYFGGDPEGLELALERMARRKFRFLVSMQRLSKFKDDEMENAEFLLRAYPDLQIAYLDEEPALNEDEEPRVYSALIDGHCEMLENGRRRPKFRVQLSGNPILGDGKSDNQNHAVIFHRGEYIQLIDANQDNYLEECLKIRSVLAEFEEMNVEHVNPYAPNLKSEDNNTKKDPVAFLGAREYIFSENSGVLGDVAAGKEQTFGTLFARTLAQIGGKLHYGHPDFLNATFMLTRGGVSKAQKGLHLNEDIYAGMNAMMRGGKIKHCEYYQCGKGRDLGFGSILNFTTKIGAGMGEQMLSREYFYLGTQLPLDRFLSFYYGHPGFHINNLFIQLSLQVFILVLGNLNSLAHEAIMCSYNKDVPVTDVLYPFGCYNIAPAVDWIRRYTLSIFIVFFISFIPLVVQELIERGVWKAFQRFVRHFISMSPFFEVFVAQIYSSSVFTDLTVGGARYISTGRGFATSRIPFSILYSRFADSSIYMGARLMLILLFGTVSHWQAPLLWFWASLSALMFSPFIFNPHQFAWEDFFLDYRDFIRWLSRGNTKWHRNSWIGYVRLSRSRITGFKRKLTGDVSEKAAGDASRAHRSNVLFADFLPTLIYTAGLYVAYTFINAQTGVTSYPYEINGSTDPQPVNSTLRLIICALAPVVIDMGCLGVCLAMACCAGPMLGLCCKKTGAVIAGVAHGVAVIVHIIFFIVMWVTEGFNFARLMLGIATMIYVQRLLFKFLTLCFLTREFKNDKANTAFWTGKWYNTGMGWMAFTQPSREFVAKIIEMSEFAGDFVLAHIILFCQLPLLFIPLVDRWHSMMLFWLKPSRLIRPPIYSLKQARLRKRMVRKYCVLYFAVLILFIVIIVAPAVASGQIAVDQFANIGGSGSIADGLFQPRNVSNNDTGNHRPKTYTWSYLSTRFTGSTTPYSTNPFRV
T1 sequence (O42825 1-195 partner limits assumed): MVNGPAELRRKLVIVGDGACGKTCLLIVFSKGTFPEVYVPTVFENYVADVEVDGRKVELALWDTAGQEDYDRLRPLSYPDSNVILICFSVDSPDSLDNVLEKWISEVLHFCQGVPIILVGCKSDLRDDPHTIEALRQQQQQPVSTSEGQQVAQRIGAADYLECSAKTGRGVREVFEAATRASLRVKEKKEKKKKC

For “Trans 1-[4-[(2-aminocyclo-hexyl)-amino]-N2-[[4″-(pentyloxy) [1,1′:4′,1″-terphenyl]-4-yl]-carbonyl]-L-ornithine]-4-[4-(4-hydroxyphenyl)-L-threonine]-5-L-serine-echinocandine B trifluoroacetate (isomer A) [Example 3 isomer A]”, the “Inhibition of the glucan synthase of Candida albicans” value was “good activity”.
